Experimental data from US20230320956A1, “DIARYLALKANE COMPOUNDS AND COMPOSITIONS FOR USE WITH SKIN AGING AND METHODS OF PRODUCTION THEREOF” (Unigen, Inc., priority 2022, published 2023).

Tests used:
[1] = tested on: keratinocytes (Hacat cell line); experiment: Global gene expression (RNA-seq) in treated keratinocytes; format: cell-based, human; conditions: for Fold change (gene expression): 40 μM vs untreated; for Fold Enrichment / Number of Genes Differentially Expressed: 40 μM
Experimental: To determine specific expression changes dimethoxytolyl propylresorcinol exerted on human keratinocyte aging genes, keratinocytes (Hacat cell line) were treated dimethoxytolyl propylresorcinol at 40 μM and gene expression was analyzed by RNA-seq. Differential gene expression was compared to untreated keratinocytes and cells treated with 40 μM Retinol A to find genes involved in aging. […] Retinol was chosen as a positive control because retinoids have been described as having effective anti-aging and anti-wrinkle effects (Zasada M, 2019). We directly compared the effects of Retinol on keratinocytes with the same concentration of dimethoxytolyl propylresorcinol.

[2] = tested on: skin blotchiness/age spots, Caucasian subjects; experiment: Self-assessment of skin blotchiness/age spots, Caucasian subjects; format: in vivo, human; conditions: Week 8
Experimental: Skin Blotchiness/Age Spots (Caucasian subjects): In order to determine any changes in skin blotchiness/age spots, chroma was analyzed by Visia CR®. The degree to which a color is free from being mixed with other colors is a good indication of its chromacity. An increase in the chroma score represented an improvement in skin blotchiness/age spots. A decrease represented a worsening. At each visit, Caucasian subjects rated their skin blotchiness/age spots according to the following scale: 0—No skin blotchiness or age spots visible, 1-3—Slight areas of skin blotchiness or age spots visible, 4-6—Moderate areas of skin blotchiness or age spots visible, 7-9—Severe areas of skin blotchiness or age spots visible. Additionally, at the final visit, subjects completed a questionnaire. There were no significant changes to skin blotchiness/age spots as assessed by the Visia CR® analysis at any of the clinic visits, although the Mean Score for skin blotchiness/age spots trended toward an increase at all 2, 4, and 8 weeks after starting dimethoxytolyl propylresorcinol use compared to Baseline, indicating an improvement in skin blotchiness/age spots (Table 27).

[3] = Gene Cluster Activation of MAPK activity
[4] = Gene Cluster Calcium ion binding
[5] = Gene Cluster Cell-cell signaling
[6] = Gene Cluster Cellular response to lipopolysaccharide
[7] = Gene Cluster Cellular response to retinoic acid
[8] = Gene Cluster Epidermis development
[9] = Gene Cluster Epithelial cell differentiation
[10] = Gene Cluster Extracellular exosome
[11] = Gene Cluster Extracellular matrix organization
[12] = Gene Cluster Extracellular region
[13] = Gene Cluster Extracellular space
[14] = Gene Cluster Growth factor activity
[15] = Gene Cluster Hyaluronan biosynthetic process
[16] = Gene Cluster Inflammatory response
[17] = Gene Cluster Intermediate filament cytoskeleton organization
[18] = Gene Cluster Keratinocyte differentiation
[19] = Gene Cluster Negative regulation of ERK1 and ERK2 cascade
[20] = Gene Cluster Negative regulation of cell proliferation
[21] = Gene Cluster Negative regulation of endopeptidase activity
[22] = Gene Cluster Neutrophil chemotaxis
[23] = Gene Cluster O-glycan processing
[24] = Gene Cluster Osteoblast differentiation
[25] = Gene Cluster Positive regulation of angiogenesis
[26] = Gene Cluster Positive regulation of cell migration
[27] = Gene Cluster Positive regulation of cell proliferation
[28] = Gene Cluster Positive regulation of gene expression
[29] = Gene Cluster Positive regulation of smooth muscle cell proliferation
[30] = Gene Cluster Proteinaceous extracellular matrix
[31] = Gene Cluster Transforming growth factor beta receptor binding

## COc1ccc(CCCc2ccc(O)cc2O)c(OC)c1C [dimethoxytolyl propylresorcinol, 1-(3-methyl-2,4-dimethoxyphenyl)-3-(2′,4′-dihydroxyphenyl)-propane]
[1]; AHR - Aryl hydrocarbon receptor, Oxidative stress
  Fold change (gene expression): 1.73 fold
[1]; ANGPTL4 - Angiopoietin-like 4, Negative regulation of growth/Angiogenesis
  Fold change (gene expression): 8.23 fold
[1]; ANOS1 - Anosmin 1, ECM/Nerve adhesion
  Fold change (gene expression): 0.49 fold
[1]; BMP4 - Bone morphogenetic protein 4, Growth
  Fold change (gene expression): 0.41 fold
[1]; C3orf33 - Chromosome 3 open reading frame 33, Negative regulation of growth
  Fold change (gene expression): 3.03 fold
[1]; CD1D - CD1d molecule, ECM
  Fold change (gene expression): 0.36 fold
[1]; CDK5R1 - Cyclin-dependent kinase 5 activator 1, Growth/Skin barrier
  Fold change (gene expression): 1.54 fold
[1]; CEACAM1 - CEA cell adhesion molecule 1, Cell adhesion
  Fold change (gene expression): 2.01 fold
[1]; COL1A1 - Collagen type 1, ECM
  Fold change (gene expression): 1.89 fold
[1]; COL5A1 - Collagen type V alpha 1 chain, ECM
  Fold change (gene expression): 0.24 fold
[1]; CRISPLD2 - Cysteine-rich secretory protein LCCL domain-containing 2, ECM
  Fold change (gene expression): 2.56 fold
[1]; CXCL3 - C-X-C motif chemokine ligand 3, Immune signaling
  Fold change (gene expression): 8.16 fold
[1]; CYP1A1 - Cytochrome P450 family 1 subfamily A member 1, Drug metabolism
  Fold change (gene expression): 5.04 fold
[1]; ECM1 - Extracellular matrix protein 1, ECM
  Fold change (gene expression): 2.49 fold
[1]; EPHA4 - Ephrin type-A receptor 4, Cell adhesion, cell communication
  Fold change (gene expression): 0.42 fold
[1]; EREG - Epiregulin, Growth
  Fold change (gene expression): 9.61 fold
[1]; FABP5 - Fatty acid binding protein 5, Skin barrier
  Fold change (gene expression): 1.68 fold
[1]; FGF1 - Fibroblast growth factor 1, Growth
  Fold change (gene expression): 0.43 fold
[1]; FGF11 - Fibroblast growth factor 11, Growth
  Fold change (gene expression): 0.56 fold
[1]; FLRT2 - Fibronectin leucine-rich transmembrane protein 2, ECM
  Fold change (gene expression): 0.30 fold
[1]; [3]
  Fold Enrichment: 2.39 fold
  Number of Genes Differentially Expressed: 14
[1]; Gene Cluster Angiogenesis
  Fold Enrichment: 2.79 fold
  Number of Genes Differentially Expressed: 34
[1]; [4]
  Fold Enrichment: 1.49 fold
  Number of Genes Differentially Expressed: 58
[1]; Gene Cluster Cell development
  Fold Enrichment: 4.12 fold
  Number of Genes Differentially Expressed: 9
[1]; Gene Cluster Cell surface
  Fold Enrichment: 1.85 fold
  Number of Genes Differentially Expressed: 53
[1]; [5]
  Fold Enrichment: 2.59 fold
  Number of Genes Differentially Expressed: 36
[1]; [6]
  Fold Enrichment: 3.08 fold
  Number of Genes Differentially Expressed: 19
[1]; [7]
  Fold Enrichment: 3.14 fold
  Number of Genes Differentially Expressed: 12
[1]; [8]
  Fold Enrichment: 4.52 fold
  Number of Genes Differentially Expressed: 21
[1]; [9]
  Fold Enrichment: 2.87 fold
  Number of Genes Differentially Expressed: 11
[1]; [10]
  Fold Enrichment: 1.23 fold
  Number of Genes Differentially Expressed: 183
[1]; [11]
  Fold Enrichment: 2.05 fold
  Number of Genes Differentially Expressed: 22
[1]; [12]
  Fold Enrichment: 1.60 fold
  Number of Genes Differentially Expressed: 136
[1]; [13]
  Fold Enrichment: 1.97 fold
  Number of Genes Differentially Expressed: 140
[1]; [14]
  Fold Enrichment: 3.63 fold
  Number of Genes Differentially Expressed: 32
[1]; Gene Cluster Growth
  Fold Enrichment: 5.23 fold
  Number of Genes Differentially Expressed: 8
[1]; Gene Cluster Heparin binding
  Fold Enrichment: 2.53 fold
  Number of Genes Differentially Expressed: 22
[1]; [15]
  Fold Enrichment: 10.45 fold
  Number of Genes Differentially Expressed: 4
[1]; [16]
  Fold Enrichment: 2.61 fold
  Number of Genes Differentially Expressed: 54
[1]; [17]
  Fold Enrichment: 7.32 fold
  Number of Genes Differentially Expressed: 6
[1]; [18]
  Fold Enrichment: 3.13 fold
  Number of Genes Differentially Expressed: 13
[1]; [19]
  Fold Enrichment: 3.47 fold
  Number of Genes Differentially Expressed: 11
[1]; [20]
  Fold Enrichment: 2.17 fold
  Number of Genes Differentially Expressed: 47
[1]; [21]
  Fold Enrichment: 2.42 fold
  Number of Genes Differentially Expressed: 16
[1]; [22]
  Fold Enrichment: 3.33 fold
  Number of Genes Differentially Expressed: 12
[1]; [23]
  Fold Enrichment: 3.05 fold
  Number of Genes Differentially Expressed: 10
[1]; [24]
  Fold Enrichment: 2.64 fold
  Number of Genes Differentially Expressed: 15
[1]; [25]
  Fold Enrichment: 3.02 fold
  Number of Genes Differentially Expressed: 19
[1]; [26]
  Fold Enrichment: 2.88 fold
  Number of Genes Differentially Expressed: 29
[1]; [27]
  Fold Enrichment: 1.96 fold
  Number of Genes Differentially Expressed: 50
[1]; [28]
  Fold Enrichment: 1.82 fold
  Number of Genes Differentially Expressed: 26
[1]; [29]
  Fold Enrichment: 4.88 fold
  Number of Genes Differentially Expressed: 16
[1]; [30]
  Fold Enrichment: 2.47 fold
  Number of Genes Differentially Expressed: 35
[1]; Gene Cluster Response to drug
  Fold Enrichment: 2.04 fold
  Number of Genes Differentially Expressed: 34
[1]; [31]
  Fold Enrichment: 4.82 fold
  Number of Genes Differentially Expressed: 11
[1]; Gene Cluster Wound healing
  Fold Enrichment: 3.20 fold
  Number of Genes Differentially Expressed: 14
[1]; HAS2 - hyaluronan synthase 2, ECM
  Fold change (gene expression): 5.48 fold
[1]; HAS3 - hyaluronan synthase 3, ECM
  Fold change (gene expression): 3.59 fold
[1]; HBEGF - Heparin-binding EGF-like growth factor, Growth
  Fold change (gene expression): 8.61 fold
[1]; HIF1A - Hypoxia-inducible factor 1 subunit alpha, Oxidative stress
  Fold change (gene expression): 1.36 fold
[1]; HMOX1 - Heme oxygenase 1, Oxidative stress
  Fold change (gene expression): 5.23 fold
[1]; HS3ST1 - Heparan sulfate-glucosamine 3-sulfotransferase 1, ECM
  Fold change (gene expression): 2.28 fold
[1]; IL1A - Interleukin 1 alpha, Cytokine signaling
  Fold change (gene expression): 6.60 fold
[1]; IL1RL1 - Interleukin 1 receptor-like 1, Immune signaling
  Fold change (gene expression): 17.29 fold
[1]; ITGA6 - Integrin subunit alpha 6, Cell adhesion
  Fold change (gene expression): 1.44 fold
[1]; ITGBL1 - Integrin subunit beta-like 1, Cell adhesion
  Fold change (gene expression): 0.68 fold
[1]; KIF13A - Kinesin family member 13A, Cytoskeleton/secretion
  Fold change (gene expression): 0.67 fold
[1]; LAMA3 - Laminin subunit alpha 3, ECM
  Fold change (gene expression): 1.59 fold
[1]; LAMC2 - Laminin subunit gamma 2, ECM
  Fold change (gene expression): 2.72 fold
[1]; NGF - Nerve growth factor, Growth
  Fold change (gene expression): 113.25 fold
[1]; NID2 - Nidogen 2 precursor, ECM
  Fold change (gene expression): 1.45 fold
[1]; OCLN - Occludin, Skin barrier
  Fold change (gene expression): 1.42 fold
[1]; OLFM4 - Olfactomedin 4, ECM
  Fold change (gene expression): 0.10 fold
[1]; PARP15 - Poly (ADP-Ribose) polymerase family member 15, DNA damage repair/transcription regulation
  Fold change (gene expression): 98.2 fold
[1]; PI3 - Peptidase inhibitor 3, elastase inhibitor, Elastin genes
  Fold change (gene expression): 10.5 fold
[1]; PSAPL1 - Prosaposin-like 1, ECM
  Fold change (gene expression): 0.30 fold
[1]; PSG5 - Pregnancy specific beta-1-glycoprotein 5, ECM
  Fold change (gene expression): 0.30 fold
[1]; PTPRR - Protein tyrosine phosphatase receptor type R, Negative regulation of growth
  Fold change (gene expression): 3.96 fold
[1]; RAPGEF3 - Rap guanine nucleotide exchange factor 3, Plasma membrane fusion/cytoskeleton
  Fold change (gene expression): 1.78 fold
[1]; SELE - E-Selectin, Cell adhesion
  Fold change (gene expression): 99.30 fold
[1]; SEMA3D - Semaphorin 3D, ECM/Nerve growth
  Fold change (gene expression): 0.54 fold
[1]; SERPINB2 - Serpin family B member 2, Skin barrier
  Fold change (gene expression): 4.25 fold
[1]; SERPINB4 - Serpin family B member 4, Skin barrier
  Fold change (gene expression): 6.37 fold
[1]; SIRT1 - Sirtuin 1, Transcription regulation
  Fold change (gene expression): 1.30 fold
[1]; SIRT7 - Sirtuin 7, Transcription regulation
  Fold change (gene expression): 1.41 fold
[1]; SOD2 - Superoxide dismutase 2, Oxidative stress
  Fold change (gene expression): 1.54 fold
[1]; TFP12 - Tissue factor pathway inhibitor 2, ECM
  Fold change (gene expression): 2.37 fold
[1]; TGFB1 - Transforming growth factor beta 1, TGF-β signaling
  Fold change (gene expression): 1.30 fold
[1]; TLR4 - Toll-like receptor 4, Immune signaling
  Fold change (gene expression): 3.41 fold
[1]; TNC - Tenascin C, ECM/Nerve growth
  Fold change (gene expression): 0.50 fold
[1]; TP73 - Tumor protein P73, Growth
  Fold change (gene expression): 0.35 fold
[1]; TXNRD1 - Thioredoxin reductase 1, Oxidative stress
  Fold change (gene expression): 1.52 fold
[1]; UGCG - UDP-glucose ceramide glucosyltransferase, Lipid metabolism and transport
  Fold change (gene expression): 1.56 fold
[1]; VIT - Vitrin, ECM
  Fold change (gene expression): 0.08 fold
[2]
  Self-Assessment Skin Blotchiness/Age Spots % Improvement from Baseline: 37%
